Data reported in patent US6479435B1, “Diaryl ethers and processes for their preparation and herbicidal and desiccant compositions containing them” (ISK Americas Incorporated, priority 1997, dated 2002).

What was measured:
Format in all cases: in vivo
[1] = test system: common ragweed (Ambrosia artemisiifolia L., AMBEL); assay: Post-emerge greenhouse herbicide test, phytotoxicity rating; settings: 14 days after application; for phytotoxicity rating AMBEL: scale 0-100
Procedure, shortened: (§1)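 Plants at the 2-3 leaf stage, sown 8-21 days earlier, were track-sprayed post-emergence with compound in acetone plus 0.25% v/v non-ionic surfactant at 63-1000 g ai/ha (187 l/ha). Damage was rated at 14 days on a 0-100 scale (0 none, 100 all plants dead), for both crop injury and weed control.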

[2] = test system: soybean (Glycine max L., var. Pella 86, SOY); assay: Pre-emerge greenhouse test, crop damage rating; set-up: key to SOY crop damage rating: 0 = no damage, 100 = complete death of all plants; settings: 14 days after application, rating scale 0-100
Procedure, shortened: (§2)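 Seeds sown in sandy loam one day before track-sprayer application of acetone solutions at 125–1000 g ai/ha (187 l/ha), then surface-watered to incorporate and bottom-watered. Injury scored visually at 14 days on a 0–100 scale (0 no damage, 100 complete death).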

[3] = test system: sicklepod (Cassia obtusifolia, CASOB); assay: Post-emerge greenhouse herbicide test, phytotoxicity rating; settings: 14 days after application; for phytotoxicity rating CASOB: scale 0-100
Procedure, shortened: as §1

[4] = test system: velvetleaf (Abutilon theophrasti, ABUTH); assay: as above; settings: 14 days after application; for phytotoxicity rating ABUTH: scale 0-100
Procedure, shortened: as §1

[5] = test system: green foxtail (Setaria viridis, SETVI); assay: as above; settings: 14 days after application; for phytotoxicity rating SETVI: scale 0-100
Procedure, shortened: as §1

[6] = test system: redroot pigweed (Amaranthus retroflexus, AMARE); assay: as above; settings: 14 days after application; for phytotoxicity rating AMARE: scale 0-100
Procedure, shortened: as §1

[7] = test system: lambsquarters (Chenopodium album, CHEAL); assay: as above; settings: 14 days after application; for phytotoxicity rating CHEAL: scale 0-100
Procedure, shortened: as §1

[8] = test system: Johnsongrass (Sorghum halepense, SORHA); assay: as above; settings: 14 days after application; for phytotoxicity rating SORHA: scale 0-100
Procedure, shortened: as §1

[9] = test system: ivyleaf morningglory (Ipomoea hederacea, IPOHE); assay: as above; settings: 14 days after application; for phytotoxicity rating IPOHE: scale 0-100
Procedure, shortened: as §1

[10] = test system: large crabgrass (Digitaria sanguinalis, DIGSA); assay: as above; settings: 14 days after application; for phytotoxicity rating DIGSA: scale 0-100
Procedure, shortened: as §1

[11] = test system: barnyardgrass (Echinochloa crusgalli, ECHCG); assay: as above; settings: 14 days after application; for phytotoxicity rating ECHCG: scale 0-100
Procedure, shortened: as §1

[12] = test system: soybean (Glycine max L., var. Pella 86, SOY); assay: Post-emerge greenhouse test, crop damage rating; set-up: key to crop damage rating SOY: 0-100 scale: 0 = no damage, 100 = complete death of all plants; settings: 14 days after application; for crop damage rating SOY: scale 0-100
Procedure, shortened: as §1

[13] = test system: field corn (Zea mays L., var. Dekalb 535, CORN); assay: Post-emerge greenhouse test, crop damage rating; settings: 14 days after application; for crop damage rating CORN: scale 0-100
Procedure, shortened: as §1

[14] = test system: upland rice (Oryza sp., var.Tebonnet, RICE); assay: Post-emerge greenhouse test, crop damage rating; settings: 14 days after application; for crop damage rating RICE: scale 0-100
Procedure, shortened: as §1

[15] = test system: field corn (Zea mays L., var. Dekalb 535, CORN); assay: Pre-emerge greenhouse test, crop damage rating; settings: 14 days after application, rating scale 0-100
Procedure, shortened: as §2

[16] = test system: upland rice (Oryza sp., var.Tebonnet, RICE); assay: Pre-emerge greenhouse test, crop damage rating; settings: 14 days after application, rating scale 0-100
Procedure, shortened: as §2

[17] = test system: sicklepod (Cassia obtusifolia, CASOB); assay: Pre-emerge greenhouse herbicide test, phytotoxicity rating; settings: 14 days after application, rating scale 0-100
Procedure, shortened: as §2

[18] = test system: velvetleaf (Abutilon theophrasti, ABUTH); assay: as above; settings: 14 days after application, rating scale 0-100
Procedure, shortened: as §2

[19] = test system: green foxtail (Setaria viridis, SETVI); assay: as above; settings: 14 days after application, rating scale 0-100
Procedure, shortened: as §2

[20] = test system: redroot pigweed (Amaranthus retroflexus, AMARE); assay: as above; settings: 14 days after application, rating scale 0-100
Procedure, shortened: as §2

[21] = test system: common ragweed (Ambrosia artemisiifolia L., AMBEL); assay: as above; settings: 14 days after application, rating scale 0-100
Procedure, shortened: as §2

[22] = test system: lambsquarters (Chenopodium album, CHEAL); assay: as above; settings: 14 days after application, rating scale 0-100
Procedure, shortened: as §2

[23] = test system: Johnsongrass (Sorghum halepense, SORHA); assay: as above; settings: 14 days after application, rating scale 0-100
Procedure, shortened: as §2

[24] = test system: ivyleaf morningglory (Ipomoea hederacea, IPOHE); assay: as above; settings: 14 days after application, rating scale 0-100
Procedure, shortened: as §2

[25] = test system: large crabgrass (Digitaria sanguinalis, DIGSA); assay: as above; settings: 14 days after application, rating scale 0-100
Procedure, shortened: as §2

[26] = test system: barnyardgrass (Echinochloa crusgalli, ECHCG); assay: as above; settings: 14 days after application, rating scale 0-100
Procedure, shortened: as §2

## O=c1n(CCCF)nnn1-c1cc(Oc2ccc(C(F)(F)F)cn2)c(Cl)cc1F [Compound 6-8]
[1]; 500 g al/ha
  AMBEL phytotoxicity rating (0-100): 20
[2]; 500 g ai/ha
  crop damage rating SOY: 0
[3]; 500 g al/ha
  CASOB phytotoxicity rating (0-100): 40
[4]; 500 g al/ha
  ABUTH phytotoxicity rating (0-100): 98
[5]; 500 g al/ha
  SETVI phytotoxicity rating (0-100): 90
[6]; 500 g al/ha
  AMARE phytotoxicity rating (0-100): 80
[7]; 500 g al/ha
  CHEAL phytotoxicity rating (0-100): 95
[8]; 500 g al/ha
  SORHA phytotoxicity rating (0-100): 10
[9]; 500 g al/ha
  IPOHE phytotoxicity rating (0-100): 60
[10]; 500 g al/ha
  DIGSA phytotoxicity rating (0-100): 20
[11]; 500 g al/ha
  ECHCG phytotoxicity rating (0-100): 10
[12]; 500 g al/ha
  SOY crop damage rating (0-100): 60
[13]; 500 g al/ha
  CORN crop damage rating (0-100): 5
[14]; 500 g al/ha
  RICE crop damage rating (0-100): 35
[15]; 500 g ai/ha
  crop damage rating CORN: 0
[16]; 500 g ai/ha
  crop damage rating RICE: 10
[17]; 500 g ai/ha
  phytotoxicity rating CASOB: 0
[18]; 500 g ai/ha
  phytotoxicity rating ABUTH: 80
[19]; 500 g ai/ha
  phytotoxicity rating SETVI: 100
[20]; 500 g ai/ha
  phytotoxicity rating AMARE: 85
[21]; 500 g ai/ha
  phytotoxicity rating AMBEL: 0
[22]; 500 g ai/ha
  phytotoxicity rating CHEAL: 100
[23]; 500 g ai/ha
  phytotoxicity rating SORHA: 80
[24]; 500 g ai/ha
  phytotoxicity rating IPOHE: 0
[25]; 500 g ai/ha
  phytotoxicity rating DIGSA: 75
[26]; 500 g ai/ha
  phytotoxicity rating ECHCG: 0

## Nc1cccnc1Oc1cc(-n2c(=O)n3n(c2=S)CCCC3)c(F)cc1Cl [Compound 8-42]
[1]; rate 63 g ai/ha
  phytotoxicity rating AMBEL: 40
[1]; rate 250 g ai/ha
  phytotoxicity rating AMBEL: 90
[2]; Rate 125 g al/ha
  SOY crop damage rating: 0
[2]; Rate 250 g al/ha
  SOY crop damage rating: 20
[3]; rate 63 g ai/ha
  phytotoxicity rating CASOB: 0
[3]; rate 250 g ai/ha
  phytotoxicity rating CASOB: 0
[4]; rate 63 g ai/ha
  phytotoxicity rating ABUTH: 100
[4]; rate 250 g ai/ha
  phytotoxicity rating ABUTH: 100
[5]; rate 63 g ai/ha
  phytotoxicity rating SETVI: 0
[5]; rate 250 g ai/ha
  phytotoxicity rating SETVI: 0
[6]; rate 63 g ai/ha
  phytotoxicity rating AMARE: 50
[6]; rate 250 g ai/ha
  phytotoxicity rating AMARE: 95
[7]; rate 63 g ai/ha
  phytotoxicity rating CHEAL: 50
[7]; rate 250 g ai/ha
  phytotoxicity rating CHEAL: 80
[8]; rate 63 g ai/ha
  phytotoxicity rating SORHA: 0
[8]; rate 250 g ai/ha
  phytotoxicity rating SORHA: 0
[9]; rate 63 g ai/ha
  phytotoxicity rating IPOHE: 60
[9]; rate 250 g ai/ha
  phytotoxicity rating IPOHE: 70
[10]; rate 63 g ai/ha
  phytotoxicity rating DIGSA: 0
[10]; rate 250 g ai/ha
  phytotoxicity rating DIGSA: 0
[11]; rate 63 g ai/ha
  phytotoxicity rating ECHCG: 0
[11]; rate 250 g ai/ha
  phytotoxicity rating ECHCG: 0
[12]; rate 63 g ai/ha
  crop damage rating SOY: 20
[12]; rate 250 g ai/ha
  crop damage rating SOY: 60
[13]; rate 63 g ai/ha
  crop damage rating CORN: 0
[13]; rate 250 g ai/ha
  crop damage rating CORN: 0
[14]; rate 63 g ai/ha
  crop damage rating RICE: 0
[14]; rate 250 g ai/ha
  crop damage rating RICE: 0
[15]; Rate 125 g al/ha
  CORN crop damage rating: 0
[15]; Rate 250 g al/ha
  CORN crop damage rating: 0
[16]; Rate 125 g al/ha
  RICE crop damage rating: 0
[16]; Rate 250 g al/ha
  RICE crop damage rating: 0
[17]; Rate 125 g al/ha
  CASOB phytotoxicity rating: 100
[17]; Rate 250 g al/ha
  CASOB phytotoxicity rating: 80
[18]; Rate 125 g al/ha
  ABUTH phytotoxicity rating: 100
[18]; Rate 250 g al/ha
  ABUTH phytotoxicity rating: 100
[19]; Rate 125 g al/ha
  SETVI phytotoxicity rating: 0
[19]; Rate 250 g al/ha
  SETVI phytotoxicity rating: 0
[20]; Rate 125 g al/ha
  AMARE phytotoxicity rating: 100
[20]; Rate 250 g al/ha
  AMARE phytotoxicity rating: 100
[21]; Rate 125 g al/ha
  AMBEL phytotoxicity rating: 0
[21]; Rate 250 g al/ha
  AMBEL phytotoxicity rating: 30
[22]; Rate 125 g al/ha
  CHEAL phytotoxicity rating: 80
[22]; Rate 250 g al/ha
  CHEAL phytotoxicity rating: 100
[23]; Rate 125 g al/ha
  SORHA phytotoxicity rating: 0
[23]; Rate 250 g al/ha
  SORHA phytotoxicity rating: 0i
[24]; Rate 125 g al/ha
  IPOHE phytotoxicity rating: 30
[24]; Rate 250 g al/ha
  IPOHE phytotoxicity rating: 50
[25]; Rate 125 g al/ha
  DIGSA phytotoxicity rating: 0
[25]; Rate 250 g al/ha
  DIGSA phytotoxicity rating: 0
[26]; Rate 125 g al/ha
  ECHCG phytotoxicity rating: 0
[26]; Rate 250 g al/ha
  ECHCG phytotoxicity rating: 0
